Measured values: patent publication US20240148664A1, “LIPID AND COMPOSITION” (SOGO PHARMACEUTICAL CO., LTD., priority 2021, published 2024)

Tests used:
[1] = tested on: HT1080-EGFP (human/fibrosarcoma) cells; test: Evaluation of toxicity: CCK-8 assay; format: cell-based; conditions: lipid nanoparticle containing siRNA; absorbance relative to control cells without lipid nanoparticle set at 1.00
Experimental: A. Provision of Cells • (i) A liquid medium (DMEM/Ham's F12, FBS+, P/S+) (FBS: fetal bovine serum, P/S: antibiotic) was taken out from a refrigerator and temperature-controlled in an incubator set at 37° C. • (ii) A cryotube containing the cells was taken out from a −80° C. freezer and thawed at once in an incubator set at 37° C. • (iii) A stock solution of the thawed cells was collected in a capped test tube. • (iv) The tube containing the cells was washed with the liquid medium, and the wash was also collected in the test tube. • (v) The tube was subjected to a centrifuge to precipitate the cells. • (vi) The supernatant was aspirated, and the liquid medium was added and gently tapped to disperse the cells. • (vii) A small amount of the cells-dispersed liquid medium was collected, and the number of cells was observed and counted under a microscope. • (viii) The cells were seeded in a 24-well plate such that the number of cells was 2×10^4 cells per well. For the plate for an LDH assay described later, the cells were seeded in a 96-well plate such that the number of cells was 4×10^3 cells per well. • (ix) The 24-well plate or the 96-well plate was placed in an incubator, and the cells were cultured for 24 hours under conditions of 37° C. and 5% CO2.
The produced lipid nanoparticles were introduced into cells. • (i) Fetal bovine serum (FBS) was added to a liquid medium (FBS-, P/S-) temperature-controlled as in (i) of A above, in such a way as to reach 10%. • (ii) A 24-well plate was taken out from an incubator, and the liquid medium supernatant in the 24-well plate was aspirated and washed with phosphate buffered saline (PBS). • (iii) 400 μL of the liquid medium produced in (i) above was added to the washed 24-well plate. In addition, 100 μL of an LNP solution having an adjusted concentration was added. • (iv) The 24-well plate was placed in the incubator, and the cells were cultured (for 24 hours). • (v) After 24 hours, the liquid medium supernatant in the 24-well plate was aspirated, and 500 μL of a liquid medium containing 10% FBS (FBS+/P/S+) was added. • (vi) The 24-well plate was placed in the incubator, and the cells were cultured for 24 hours under conditions of 37° C. and 5% CO2.
For Examples 1 to 9, a CCK-8 assay or an LDH assay was carried out to measure the metabolic activity of viable cells and relatively quantify the number of surviving cells to evaluate the toxicity of lipid nanoparticles.
(a) CCK-8 Assay • (i) Fetal bovine serum (FBS) and a viable cell counting kit (manufactured by DOJINDO LABORATORIES, Cell Count Kit-8) was added to a liquid medium (FBS-, P/S-) temperature-controlled as in (i) of A above, such that FBS was 10% and the kit was 10%. • (ii) A 24-well plate was taken out from an incubator. The liquid medium was removed, and 315 μL of the liquid medium containing the viable cell counting kit produced in (i) above was added. • (iii) The liquid medium was aged for 1 hour in the incubator. • (iv) The 24-well plate was taken out, and the absorbance was measured under conditions of a measurement wavelength of 450 nm and a target wavelength of 630 nm with a plate reader (manufactured by TECAN, Infinite M200). The absorbance was calculated with the absorbance of control cells to which no lipid nanoparticle was added set at 1.00. When the obtained value was 0.80 or more and 1.00 or less, a rating of double-circle (excellent) was given, when the obtained value was 0.50 or more and less than 0.80, a rating of circle (good) was given, when the obtained value was 0.20 or more and less than 0.50, a rating of triangle (fair) was given, and when the obtained value was less than 0.20, a rating of X-mark (poor) was given.

mice = test: In vivo animal experiment: protein expression level after intramuscular administration of mRNA lipid nanoparticles (IVIS luminescence); conditions: intramuscular left hind leg, 1.25 μg mRNA/mouse, time point of the value not stated
Experimental: An experiment was carried out in mice in order to evaluate lipid nanoparticles encapsulating an mRNA. By injecting mice with a solution including lipid nanoparticles to transfect the mice and measuring the amount of a predetermined protein produced, the performance of the lipid nanoparticles used can be evaluated. Hereinafter, the procedure of the experiment will be shown.
By using lipids (Ib), (Ik), and (II) of Examples 2, 11, and 12, lipid nanoparticle-containing solutions for the in vivo animal experiment were prepared. […]
50 μL (1.25 μg/mouse, in terms of amount of mRNA) of the solution for administration was intramuscularly administered to the left hind leg of mice. […] 10 Minutes after administration of the luciferin solution, the amount of luminescence at a predetermined time after administration was measured under isoflurane anesthesia with an in vivo imaging system (manufactured by Xenogen, IVIS) to calculate the protein expression level.

For `CCCCCCCC/C=C\CCCCCCCCC(CCCCCCC/C=C\CCCCCCCC)OC(=O)C(CC(=O)O)NC(=O)C(N)CCCNC(=N)N` (centres unmarked) [Example 1, 3-(2-amino-5-guanidinopentanamido)-4-(((9Z,27Z)-hexatriaconta-9,27-dien-18-yl)oxy)-4-oxobutanoic acid], the “CCK Assay” value [1] was “⊚ (When the obtained value was 0.80 or more and 1.00 or less, a rating of double-circle (excellent) was given)”.

In the case of `CCCCCCCC/C=C\CCCCCCCCC(CCCCCCC/C=C\CCCCCCCC)OC(=O)C(CCC(=O)O)NC(=O)C(N)CCCNC(=N)N` (centres unmarked) [Example 2, 4-(2-amino-5-guanidinopentanamido)-5-(((9Z,27Z)-hexatriaconta-9,27-dien-18-yl)oxy)-5-oxopentanoic acid], the “CCK Assay” value [1] is reported as “⊚ (When the obtained value was 0.80 or more and 1.00 or less, a rating of double-circle (excellent) was given)”, the Protein expression level (mice; PEG-modified lipid (PEG2000-DMG 1.5 mol %) present) is reported as 130,000 and the Protein expression level (mice; PEG-modified lipid absent) is reported as 13,000.

`CCCCCCCC/C=C\CCCCCCCCC(CCCCCCC/C=C\CCCCCCCC)OC(=O)C(CO)NC(=O)C(N)CCCNC(=N)N` [Example 4, (9Z,27Z)-hexatriaconta-9,27-dien-18-yl (2S)-2-((S)-2-amino-5-guanidinopentanamido)-3-hydroxypropionate] was tested, and the “CCK Assay” value [1] was “◯ (when the obtained value was 0.50 or more and less than 0.80, a rating of circle (good) was given)”.
